Test results reported in patent US4310590A (priority 1979, dated 1982).
Converted amounts (≈) assume the structure as drawn.

Experiments:
Botrytis cinerea = experiment: whole plant or invertebrate; assay type: in vivo; conditions: for Disease Control Level, BOT: 150 ppm; for pest or weed control at 38 ppm / pest or weed control at 75 ppm / pest or weed control at 300 ppm: Botrytis cinerea, read-out: Disease Control Level, BOT
Erysiphe polygoni = experiment: whole plant or invertebrate; assay type: in vivo; conditions: read-out: Disease Control Level, BPM
[1] = system: Puccinia graminis f. sp. tritici; experiment: whole plant or invertebrate; assay type: in vivo, Puccinia graminis f. sp. tritici race 15B-2; conditions: for Disease Control Level, WSR: 150 ppm, wheat seedlings
Staphylococcus aureus = experiment: Serial Dilution Test (Broth Titer Test), antibacterial, Staphylococcus aureus; assay type: cell-based; conditions: for MIC: Staphylococcus aureus, read-out: SDT, MIC; for SDT, MIC: in vitro serial dilution test, S = Staphylococcus aureus
Description: (§1) Antibacterial and antifungal activity were evaluated by the Serial Dilution Test (Broth Titer Test) wherein a series of broths containing varying dilutions of a test compound and an organism are halved starting with 1:1,000. The values shown represent the maximum dilution in parts per million at which the compound under evaluation renders complete control of the organism. Pseudomonas aeruginosa (P), Staphylococcus aureus (S), and Escherichia coli (E) were the bacterial organisms employed in this test, and the fungi employed were Aspergillus niger (A) and Rhizopus stolonifer (R).
(§2) ^a In vitro serial dilution test (SDT), minimum inhibitory
(§3) concentrations (MIC) against E = E. coli, P = Ps. aeruginosa, S =
(§4) Staphylococcus aureus, A = A. niger, and R = Rhizopus stolonifer are give
(§5) in parts per million of a biocide.

Plasmopora viticola = experiment: whole plant or invertebrate; assay type: in vivo; conditions: for pest or weed control at 38 ppm / pest or weed control at 75 ppm / pest or weed control at 300 ppm: read-out: Disease Control Level, GDM
Helminthosporium teres = experiment: whole plant or invertebrate; assay type: in vivo; conditions: Pyrenophora teres, in Hordeum vulgare, read-out: Disease Control Level, BH
Phytophthora infestans = experiment: whole plant or invertebrate; assay type: in vivo
Piricularia oryzae = experiment: whole plant or invertebrate; assay type: in vivo; conditions: for Disease Control Level, RB: 150 ppm
Ps. aeruginosa = experiment: Serial Dilution Test (Broth Titer Test), antibacterial, Ps. aeruginosa; assay type: cell-based, Pseudomonas aeruginosa; conditions: for MIC: Pseudomonas aeruginosa, read-out: SDT, MIC; for SDT, MIC: in vitro serial dilution test, P = Ps. aeruginosa
Description: as §1, §2, §3, §4, §5

A. niger = experiment: Serial Dilution Test (Broth Titer Test), antifungal, A. niger; assay type: cell-based, Aspergillus niger; conditions: in vitro serial dilution test; for MIC: Aspergillus niger, read-out: SDT, MIC
Description: as §1, §2, §3, §4, §5

E. coli = experiment: Serial Dilution Test (Broth Titer Test), antibacterial, E. coli; assay type: cell-based, Escherichia coli; conditions: for MIC: Escherichia coli, read-out: SDT, MIC; for SDT, MIC: in vitro serial dilution test, E = E. coli
Description: as §1, §2, §3, §4, §5

Rhizopus stolonifer = experiment: Serial Dilution Test (Broth Titer Test), antifungal, Rhizopus stolonifer; assay type: cell-based; conditions: in vitro serial dilution test, R = Rhizopus stolonifer
Description: as §1, §2, §3, §4, §5

[2] = Puccinia graminis, read-out: Disease Control Level, WSR
[3] = Phytophthora infestans, in Solanum lycopersicum, read-out: Disease Control Level, TLB
[4] = Pyricularia oryzae, read-out: Disease Control Level, RB

SMILES	Disease Control Level, BOT (Botrytis cinerea)	pest or weed control at 38 ppm (Botrytis cinerea) [%]	pest or weed control at 75 ppm (Botrytis cinerea) [%]	pest or weed control at 300 ppm (Botrytis cinerea) [%]	pest or weed control at 300 ppm (Erysiphe polygoni) [%]	Disease Control Level, WSR [1]	pest or weed control at 300 ppm [1, 2] [%]	MIC (Staphylococcus aureus) [µg/mL]	Disease Control Level, GDM (Plasmopora viticola; 150 ppm)	pest or weed control at 300 ppm (Plasmopora viticola) [%]	pest or weed control at 300 ppm (Helminthosporium teres) [%]	pest or weed control at 300 ppm (Phytophthora infestans; [3]) [%]	Disease Control Level, RB (Piricularia oryzae)	pest or weed control at 38 ppm (Piricularia oryzae; [4]) [%]	pest or weed control at 75 ppm (Piricularia oryzae; [4]) [%]	other results
CN(C)C(=S)Sc1cc(=O)n(Cc2ccccc2)s1 [Example 1, 2-Benzyl-5-(N,N-dimethylthiocarbamoyl)thio-4-isothiazolin-3-one]	B/B	70 to 89	70 to 89	90 to 96	50	C/C	90 to 96	> 500	C/C	90 to 96	97 to 100	50	A/E	97 to 100	97 to 100	pest or weed control at 38 ppm [1, 2]: 50%; pest or weed control at 75 ppm [1, 2]: 50%; pest or weed control at 38 ppm (Plasmopora viticola): 50 to 69%; pest or weed control at 75 ppm (Plasmopora viticola): 70 to 89%; pest or weed control at 38 ppm (Helminthosporium teres): 50%; pest or weed control at 75 ppm (Helminthosporium teres): 50%; pest or weed control at 150 ppm (Helminthosporium teres): 50%
Cc1c(SC(=S)N(C)C)sn(-c2ccccc2)c1=O [Example 2, 5-(N,N-Dimethylthiocarbamoyl)thio-4-methyl-2-phenyl-4-isothiazolin-3-one]	B/C	70 to 89	90 to 96	90 to 96	50		70 to 89			50	50	50	A/E	90 to 96	90 to 96	MIC (Ps. aeruginosa): > 500 µg/mL; MIC (A. niger): 500 µg/mL (≈ 1610 µM); MIC (E. coli): 500 µg/mL (≈ 1610 µM)
CN(C)C(=S)Sc1sn(CCc2ccccc2)c(=O)c1Cl [Example 3, 4-Chloro-5-(N,N-dimethylthiocarbamoyl)thio-2-phenethyl-4-isothiazolin-3-one]				50	50		70 to 89	> 500		50	50	50				pest or weed control at 300 ppm (Piricularia oryzae; [4]): 50%
CN(C)C(=S)Sc1cc(=O)n(CCc2ccccc2)s1 [Example 4]	A/C	90 to 96	90 to 96	90 to 96	50	E/E	97 to 100	> 500	A/A	90 to 96	50	50		50	50	pest or weed control at 38 ppm (Plasmopora viticola): 90 to 96%; pest or weed control at 75 ppm (Plasmopora viticola): 97 to 100%; pest or weed control at 150 ppm (Piricularia oryzae; [4]): 97 to 100%
CN(C)C(=S)Sc1cc(=O)n(C)s1 [Example 5]	A/C	90 to 96	97 to 100	90 to 96	50	C/E	90 to 96		A/A	90 to 96	97 to 100	50	A/E	97 to 100	97 to 100	pest or weed control at 75 ppm [1, 2]: 50%; MIC (Ps. aeruginosa): > 500 µg/mL; Disease Control Level, GDM (Plasmopora viticola; 19 ppm): C/E; pest or weed control at 38 ppm (Plasmopora viticola): 97 to 100%; pest or weed control at 75 ppm (Plasmopora viticola): 97 to 100%; pest or weed control at 19 ppm (Helminthosporium teres; 19 ppm): 50%; pest or weed control at 38 ppm (Helminthosporium teres): 50%; pest or weed control at 75 ppm (Helminthosporium teres): 50%; pest or weed control at 150 ppm (Helminthosporium teres): 50%; MIC (A. niger): 125 µg/mL (≈ 533 µM); pest or weed control at 19 ppm (Piricularia oryzae; [4]): 97 to 100%; MIC (E. coli): 500 µg/mL (≈ 2130 µM)
CCCCCCCCn1sc(SC(=S)N(C)C)cc1=O [Example 6]				50	50		97 to 100			50	50					
Cc1c(SC(=S)N(C)C)sn(CCc2ccccc2)c1=O [Example 7]				50	50		97 to 100	> 500		50	50	50	B/E	90 to 96	90 to 96	pest or weed control at 38 ppm [1, 2]: 50%; pest or weed control at 75 ppm [1, 2]: 50%; pest or weed control at 150 ppm [1, 2]: 50%
Cc1c(SC(=S)N(C)C)sn(-c2ccc(Br)cc2)c1=O [Example 8]						C/C			A/B				A/E			SDT, MIC (Rhizopus stolonifer): 250 PPM; SDT, MIC (Ps. aeruginosa): 500 PPM; SDT, MIC (Staphylococcus aureus): 500 PPM; SDT, MIC (A. niger): 500 PPM; SDT, MIC (E. coli): 500 PPM
Cc1c(SC(=S)N(C)C)sn(-c2ccc(Cl)cc2)c1=O [Example 9]	C/C								A/E				A/A			SDT, MIC (Rhizopus stolonifer): 250 PPM; SDT, MIC (Ps. aeruginosa): 500 PPM; SDT, MIC (Staphylococcus aureus): 500 PPM; SDT, MIC (A. niger): 500 PPM; SDT, MIC (E. coli): 500 PPM
Cc1c(SC(=S)N(C)C)sn(-c2ccc(Cl)cc2Cl)c1=O [Example 10]																SDT, MIC (Rhizopus stolonifer): 250 PPM; SDT, MIC (Ps. aeruginosa): 500 PPM; SDT, MIC (Staphylococcus aureus): 500 PPM; SDT, MIC (A. niger): 500 PPM; SDT, MIC (E. coli): 500 PPM
Cc1c(SC(=S)N(C)C)sn(C2CCCCC2)c1=O [Example 11]				50	50		70 to 89	500 (≈ 1580 µM)		50	50	50				MIC (Rhizopus stolonifer; read-out: SDT, MIC): 250 µg/mL (≈ 790 µM); MIC (Ps. aeruginosa): 500 µg/mL (≈ 1580 µM); MIC (A. niger): 500 µg/mL (≈ 1580 µM); pest or weed control at 300 ppm (Piricularia oryzae; [4]): 50%; MIC (E. coli): 500 µg/mL (≈ 1580 µM)
O=c1cc(SC(=S)N(Cc2ccccc2)Cc2ccccc2)sn1CCc1ccccc1 [Example 12, 5-(N,N-Dibenzylthiocarbamoyl)thio-2-phenethyl-4-isothiazolin-3-one]				50	50		50			50	50	50				pest or weed control at 300 ppm (Piricularia oryzae; [4]): 50%
Cn1sc(SC(=S)N2CCCC2)cc1=O [Example 13, 2-Methyl-5-[N,N-tetramethylenethiocarbamoyl]thio-4-isothiazolin-3-one]	A/E	70 to 89	70 to 89	97 to 100	50	C/E	90 to 96	> 500	A/E	97 to 100	50	90 to 96	A/E	90 to 96	90 to 96	pest or weed control at 38 ppm [1, 2]: 70 to 89%; pest or weed control at 75 ppm [1, 2]: 70 to 89%; pest or weed control at 38 ppm (Plasmopora viticola): 97 to 100%; pest or weed control at 75 ppm (Plasmopora viticola): 97 to 100%; Disease Control Level, TLB (Phytophthora infestans; 150 ppm, tomato seedlings): A/E; pest or weed control at 38 ppm (Phytophthora infestans; [3]): 50%; pest or weed control at 75 ppm (Phytophthora infestans; [3]): 90 to 96%; pest or weed control at 300 ppm (Piricularia oryzae; [4]): 90 to 96%
N#Cc1cc(=O)n(CCc2ccccc2)s1 [Example 15, 5-Cyano-2-phenethyl-4-isothiazolin-3-one]								> 500								
